# Tests used:
# [1] = tested on: Amaranthus palmeri cytosolic GS1.1 Y55L; experiment: GS enzyme inhibition assay, GS1.1 Y55L; type: biochemical
# Method: (§1) GS activity was determined spectrophotometrically following the Sigma‐Aldrich enzymatic assay protocol. The reaction couples the ATP‐dependent conversion of L‐glutamate and ammonium to L‐glutamine with pyruvate kinase (PK) and L‐lactate dehydrogenase (LDH), such that oxidation of β‐NADH to β‐NAD^+ can be monitored at 340 nm. Recombinant GS from A. palmeri was expressed in E. coli, purified by affinity chromatography, and quantified by the Bradford method using bovine serum albumin as standard. […] Reaction mixtures were equilibrated to 37°C and initiated by the addition of enzyme, and the decrease in absorbance at 340 nm was recorded for 5–10 min; only the linear portion of the curve was used for activity calculations. […] Activity was calculated using an extinction coefficient for NADH of 6.22 mM^−1 cm^−1 and expressed as units per mg protein, where one unit corresponds to the formation of 1 μmol of L‐glutamine in […] at pH 7.1 and 37 °C. […] Percent inhibition was calculated relative to untreated (positive) and no‐enzyme (negative) controls. […] Resistance factors were calculated by dividing the IC₅₀ of each mutant variant by that of wild‐type GS.
# [2] = tested on: Amaranthus palmeri cytosolic GS1.1 E131G; experiment: GS enzyme inhibition assay, GS1.1 E131G; type: biochemical
# Method: as §1
# [3] = tested on: Amaranthus palmeri cytosolic GS1.1 R291S; experiment: GS enzyme inhibition assay, GS1.1 R291S; type: biochemical
# Method: as §1
# [4] = tested on: Amaranthus palmeri cytosolic GS1.1 V161S; experiment: GS enzyme inhibition assay, GS1.1 V161S; type: biochemical
# Method: as §1
# [5] = tested on: Amaranthus palmeri cytosolic GS1.1 R291H; experiment: GS enzyme inhibition assay, GS1.1 R291H; type: biochemical
# Method: as §1
# [6] = tested on: Amaranthus palmeri cytosolic GS1.1 H249L; experiment: GS enzyme inhibition assay, GS1.1 H249L; type: biochemical
# Method: as §1
# [7] = tested on: Amaranthus palmeri cytosolic GS1.1 S58M; experiment: GS enzyme inhibition assay, GS1.1 S58M; type: biochemical
# Method: as §1
# [8] = tested on: Amaranthus palmeri cytosolic GS1.1 C159H; experiment: GS enzyme inhibition assay, GS1.1 C159H; type: biochemical
# Method: as §1
# [9] = tested on: Amaranthus palmeri cytosolic GS1.1 E297Q; experiment: GS enzyme inhibition assay, GS1.1 E297Q; type: biochemical
# Method: as §1
# [10] = tested on: Amaranthus palmeri cytosolic GS1.1 G162N; experiment: GS enzyme inhibition assay, GS1.1 G162N; type: biochemical
# Method: as §1
# [11] = tested on: Amaranthus palmeri cytosolic GS1.1 S174E; experiment: GS enzyme inhibition assay, GS1.1 S174E; type: biochemical
# Method: as §1
# [12] = tested on: Amaranthus palmeri cytosolic GS1.1 R311L; experiment: GS enzyme inhibition assay, GS1.1 R311L; type: biochemical
# Method: as §1
# [13] = tested on: Amaranthus palmeri cytosolic GS1.1 G155F; experiment: GS enzyme inhibition assay, GS1.1 G155F; type: biochemical
# Method: as §1
# [14] = tested on: Amaranthus palmeri cytosolic GS1.1 S59N; experiment: GS enzyme inhibition assay, GS1.1 S59N; type: biochemical
# Method: as §1
# [15] = tested on: Amaranthus palmeri cytosolic GS1.1 R291C; experiment: GS enzyme inhibition assay, GS1.1 R291C; type: biochemical
# Method: as §1
# [16] = tested on: Amaranthus palmeri cytosolic GS1.1 K36A; experiment: GS enzyme inhibition assay, GS1.1 K36A; type: biochemical
# Method: as §1
# [17] = tested on: Amaranthus palmeri cytosolic GS1.1 V161N; experiment: GS enzyme inhibition assay, GS1.1 V161N; type: biochemical
# Method: as §1
# [18] = tested on: Amaranthus palmeri cytosolic GS1.1 K177L; experiment: GS enzyme inhibition assay, GS1.1 K177L; type: biochemical
# Method: as §1
# [19] = tested on: Arabidopsis thaliana plants expressing Amaranthus palmeri GS2.2 G255D; experiment: Postemergence GFA spray on transgenic Arabidopsis expressing GS2.2 G255D; type: in vivo; details: 100, 500 and 1000 g ha^−1 postemergence, listed as GFA
# From the text: Mutant GS variants G2.2 G255D from A. palmeri and G254D from Arabidopsis were cloned into the RTP6557 transformation vector, which was subsequently introduced into Agrobacterium tumefaciens strain C58C1pMP90. The construct also carried an acetolactate synthase (ALS) herbicide‐resistance gene as a selectable marker, ensuring that Arabidopsis seedlings tested for resistance to GFA herbicide expressed the transgene.
# Arabidopsis plants carrying immature floral buds were transformed by the floral‐dip method, immersing inflorescences for 10 s in the bacterial suspension supplemented with Silwet‐L77 at 0.05% v/v. After dipping, plants were maintained overnight under high humidity and low light, then transferred to long‐day conditions until maturity. Once siliques had yellowed, seeds were harvested into paper bags. T₁ seeds were collected, placed into Falcon tubes, and stored at 4 °C.
# After ≥14 d of cold storage, T₁ seeds were sown and stratified as previously described. Transgenic plants were confirmed by PCR detection of the AHAS resistance marker gene. […]
# Herbicide treatments were applied at the 10‐leaf stage using a spray chamber calibrated to deliver 375 L ha^−1 of spray solution. […] Herbicide efficacy was visually evaluated 7 d after application.
# [20] = tested on: Amaranthus palmeri cytosolic GS1.1 R291G; experiment: GS enzyme inhibition assay, GS1.1 R291G; type: biochemical
# Method: as §1
# [21] = read-out: Glufosinate‐ammonium IC50
smiles,measurement,setting,value
CP(=O)(O)CCC(N)C(=O)O (stereo not drawn) [Glufosinate‐ammonium],Resistance index (RI),[1]; IC50 variant / IC50 WT,0.8
same,IC50,[1]; [21],17 µM
same,Glufosinate‐ammonium % Inhibition at saturation 10 000 μM,[2]; 10 000 μM,7.2%
same,IC50,[2]; [21],> 10000 µM
same,Glufosinate‐ammonium % Inhibition at saturation 10 000 μM,[3]; 10 000 μM,0.3%
same,IC50,[3]; [21],> 10000 µM
same,Resistance index (RI),[4]; IC50 variant / IC50 WT,1.8
same,IC50,[4]; [21],39 µM
same,Glufosinate‐ammonium % Inhibition at saturation 10 000 μM,[5]; 10 000 μM,0%
same,IC50,[5]; [21],> 10000 µM
same,Glufosinate‐ammonium % Inhibition at saturation 10 000 μM,[6]; 10 000 μM,7.8%
same,IC50,[6]; [21],> 10000 µM
same,Resistance index (RI),[7]; IC50 variant / IC50 WT,4.3
same,IC50,[7]; [21],94 µM
same,Resistance index (RI),[8]; IC50 variant / IC50 WT,186.5
same,IC50,[8]; [21],4050 µM
same,Resistance index (RI),[9]; IC50 variant / IC50 WT,0.0
same,IC50,[9]; [21],0.6 µM
same,Resistance index (RI),[10]; IC50 variant / IC50 WT,22.6
same,IC50,[10]; [21],489 µM
same,Resistance index (RI),[11]; IC50 variant / IC50 WT,0.0
same,IC50,[11]; [21],1 µM
same,Glufosinate‐ammonium % Inhibition at saturation 10 000 μM,[12]; 10 000 μM,14%
same,IC50,[12]; [21],> 10000 µM
same,Resistance index (RI),[13]; IC50 variant / IC50 WT,11.7
same,IC50,[13]; [21],254 µM
same,Resistance index (RI),[14]; IC50 variant / IC50 WT,1.8
same,IC50,[14]; [21],39.5 µM
same,Glufosinate‐ammonium % Inhibition at saturation 10 000 μM,[15]; 10 000 μM,0%
same,IC50,[15]; [21],> 10000 µM
same,Resistance index (RI),[16]; IC50 variant / IC50 WT,11.5
same,IC50,[16]; [21],248 µM
same,Resistance index (RI),[17]; IC50 variant / IC50 WT,3.0
same,IC50,[17]; [21],64 µM
same,Resistance index (RI),[18]; IC50 variant / IC50 WT,0.1
same,IC50,[18]; [21],1.3 µM
same,tolerance to GFA (visual injury),[19],chlorosis and necrosis comparable to wild‐type controls
same,Glufosinate‐ammonium % Inhibition at saturation 10 000 μM,[20]; 10 000 μM,0%
same,IC50,[20]; [21],> 10000 µM
